Laboratory results: patent US8623889B2, “Substituted 6,6-fused nitrogenous heterocyclic compounds and uses thereof” (Genentech, Inc., priority 2010, dated 2014)
pEC50: −log10 of the molar value.

Experiments:
[1] = system: K-562 cells; test: K-562 cell proliferation assay (CellTiter-Glo); type: cell-based; conditions: Homo sapiens, K562, 96 h; expected value of assay standard; 4 days incubation; read-out: EC50 to inhibit K-562 cell growth
Excerpt: The luminescent signal is proportional to the amount of ATP present.

[2] = system: HL-60 cells; test: HL-60 cell proliferation assay (CellTiter-Glo); type: cell-based; conditions: 4 days incubation
Excerpt: HL-60 cells are a Philadelphia Chromosome Negative (Ph-) cell line that serve as a control for the K-562 proliferation assay. Compounds that exert their activity by inhibition of Abl kinase should not inhibit proliferation of HL-60 cells unless such activity is due to off-target activity. This assay determines the number of viable cells in a culture by quantification of ATP. Promega's CellTiter-Glo® Luminescent Cell Viability Assay (CTG) is the reagent used for this determination. The assay is homogenous. Addition of the CTG reagent results in cell lysis and generation of a luminescent signal through the luciferase reaction. The luminescent signal is proportional to the amount of ATP present. For compounds that interfere with cell division and/or have effects on cell size, the readout is not necessarily proportional to cell number/viability. […] Cytostatic: Luminescence counts should be equivalent to counts obtained from a Day 0 read; and Cytotoxic: Luminescence counts should be equivalent to background. • Seed cells at 20000 cells/well in 20 ul cell plating media into a 384 well cell plate. […] Incubate in humidified CO2 incubator • Day 4a: Add 40 uL of Cell Titer-Glo solution • Day 4b: Incubate CTG reaction • Day 4c: Read luminescence

Row | EC50 to inhibit HL-60 cell growth (in words) ([2]; expected result of assay standard) | Structure (SMILES) | pEC50 [1] | pEC50 ([2]; Homo sapiens, HL-60, 96 h, expected value of assay standard, read-out: EC50 to inhibit HL-60 cell growth)
1 | – | COC(=O)Nc1nc2ccc(C(=O)c3cccs3)cc2[nH]1 [Nocodazole] | ~7.40 | ~7.40
2 | Inactive | CS(=O)(=O)O.Cc1ccc(NC(=O)c2ccc(CN3CCN(C)CC3)cc2)cc1Nc1nccc(-c2cccnc2)n1 [CAS NO 220127-57-1] | – | –
